This note sets out measurements from patent US20100028467A1, “Composition Comprising Ginsenosides Isolated From The Extract Of Processed Ginseng For Preventing And Treating Thrombotic Disease” (Ginseng Science, Inc., priority 2008, published 2010).

Experiment [1] concerns AA-induced platelet aggregation. Kind of experiment: Platelet aggregation inhibition test (aggregometer), AA-induced. The class given is cell-based, rat. Particulars: for IC50: AA 30˜60×10^−6M with near-threshold collagen, rat adjusted PRP; for fold stronger activity than ASA on AA-induced aggregation: relative to ASA. As for the experimental part: (§1) 7 weeks-year old Sprgue-Dawley male white rat (240±20 g, Orient Bio Co. Ltd) was anesthetized with diethyl ether. The blood of rat was collected from heart using a syringe containing 2.2% sodium citrate (10% v/v) and centrifuged for 10 mins with the speed of 200×g and the supernatant (upper layer) of buffy coat was collected using by serum separator (Mediland Co. Ltd, 10×250 mm) to afford platelet rich plasma containing supematant(PRP). The residue was centrifuged at 1500×g for 15 min to obtain the platelet poor plasma (PPP) and the PRP was diluted with PPP to adjust the final platelet number in PRP to 4.0-4.5×10^8/ml. Platelet number was counted using a platelet counter (Excell 18 MWI, DANAM Electronics, USA) disclosed in the literature (Lee Y. Y. et al., Anti-platelet Aggregating and anti-oxidative activities of 11-O-(4′-O-Methylgalloy)-bergenin, A new compound isolated from Crassul cv. “Himaturi”, Planta Med., 71, pp 776-777).
(§2) An aliquote (500 μl) of platelet count adjusted PRP was preincubated for 3 minutes at 37° C. in an aggregometer (490-X optical aggregometer, Chrono-Log Corp, USA) with constant stirring at 1,000 rpm. 5 μl of ginsenoside solution was added followed by successive addition of aggregation inducing agent (5 μl) at an intervals of 30 s to incubate for 30 sec with stirring at the speed of 1100 rpm. Arachidonic acid (AA, Sigma, A8798), Thromboxane A2 (U46619, Sigma, D8174) and collagen (Chrono-Log, No. 385) were used as aggregation inducing agents at the concentration of 30˜60×10^−6M (AA), 2˜4×10^−6M (U46619) and 2˜4×10^−6 g/ml (collagen) respectively. Aspirin was used as a positive control. […] The aggregation induced by AA and U46619 was determined in presence of a near-threshold concentration (1.0-1.4 μg/ml and 0.8-1.2 μg/ml, respectively) of collagen that can only induce change in platelet shape but no aggregation.
(§3) Inhibition (%) was calculated as follows: Inhibition (%)=(1−maximal aggregation of sample-treated aPRP/maximal aggregation of vehicle-treated aPRP)×100 All experiments were performed in tripticates. IC50 values were calculated from the linear regression of the plot of mean values (n=3) of percent inhibition versus concentration of corresponding ginsenoside. Sigma Plot software was used for graphing. Regression equations were calculated using Regression Wizard from the Sigma Plot equation library.

For experiment [2], the system named is human plasma coagulation. Kind of experiment: Anti-coagulation test, aPTT (activated partial thromboplastin time). The class given is biochemical. As for the experimental part: (§4) The inhibitory effect of the ginsenosides prepared in Examples on human plasma coagulation was determined by aPTT (activated partial thromboplastin time), PT(prothrombin time) and TT(thrombin time) tests.
(§5) Fresh freeze plasma was procured from the blood bank of Seoul National University Hospital (www.snuh.org) to use in the Anti-coagulation Test in human plasma.
To determine aPTT, 0.1 ml plasma treated with test samples was incubated at 37° C. for 2 mins and aPTT reagent (Diagnostica Stago, Cat. 0595) was added thereto to incubate for 3 mins. The coagulation time from the starting time of plasma coagulation with 0.1 ml of 20 mM calcium chloride solution to the ending time of plasma agglutination was determined using by fibrometer (BBL Fibrosystems, Fischer Scientific, USA).

The subject of experiment [3] is collagen-induced platelet aggregation. Kind of experiment: Platelet aggregation inhibition test (aggregometer), collagen-induced. The class given is cell-based, rat. To be noted: for IC50: collagen 2˜4×10^−6 g/ml, rat adjusted PRP. As for the experimental part: as §1, §2, §3
Experiment [4] has as its system human plasma coagulation. Kind of experiment: Anti-coagulation test, TT (thrombin time). Type of experiment: biochemical. As for the experimental part: as §4, §5
(§6) To determine PT and TT, 0.1 ml plasma treated with test samples in the case of PT and 0.2 ml plasma treated with test samples in the case of TT was incubated at 37° C. for 2 mins respectively. 2 ml of PT reagent (Diagnostica Stago, Cat. 0605) and TT reagent (Diagnostica Stago, Cat. 0611) were added thereto to incubate for 3 mins. The coagulation time from the starting time of plasma coagulation with 0.1 ml of 20 mM calcium chloride solution to the ending time of plasma agglutination was determined using by fibrometer (BBL Fibrosystems, Fischer Scientific, USA).

In experiment [5] the test system is human plasma coagulation. Kind of experiment: Anti-coagulation test, PT (prothrombin time). Type of experiment: biochemical. How it is done: as §4, §5, §6
For experiment [6], the system named is U46619 (thromboxane A2 mimetic drug)-induced platelet aggregation. Kind of experiment: Platelet aggregation inhibition test (aggregometer), U46619-induced. Type of experiment: cell-based, rat. Particulars: for IC50: U46619 2˜4×10^−6M with near-threshold collagen, rat adjusted PRP. How it is done:
as §1, §2, §3

In experiment [7] the test system is rat platelet aggregation induced by arachidonic acid. Kind of experiment: Modified smear method, arachidonic acid-induced platelet aggregation in PRP. Type of experiment: cell-based. Also on record: key: ++: full aggregation of platelet; +: intermediate aggregation of platelet; ±: slight aggregation of platelet; −: no aggregation of platelet. Particulars: AA 4 × 10^−4 M. As for the experimental part:
(§7) The inhibitory effect of the ginsenosides prepared in Examples on the rat platelet aggregation was determined according to the procedure disclosed in the literature (Yun-Choi et al., Modified smear method for screening potential inhibitors of platelet aggregation from plant sources, J. Nat. Prod., 48(3), pp 363-370, 1985).
(§8) The blood of 7 weeks-year old Sprgue-Dawley rat (male, 240±20 g, Orient Bio Co. Ltd) was collected using a syringe containing 2.2% sodium citrate (10% v/v) and centrifuged for 10 mins with the speed of 200× g to collect platelet rich plasma containing supernatant(PRP). 0.16 ml of PRP was treated with 0.2 ml of SG, SGbu-1, and SGBu-2 as test samples and 0.2 ml of solutions of arachidonic acid (Sigma, A8798), ADP (Sigma, A4386) and collagen (Chrono-Log, No. 385) as platelet aggregation inducers (control group) to incubate for 4 mins at 37° C.
(§9) Thin Smear prepared from step 1-1 was stained and the intensity of platelet aggregation result was observed by microscopy method. The intensity of platelet aggregation result was divided into […] categories, i.e., “++”: full aggregation of platelet; “+”: intermediate aggregation of platelet; “±”: slight aggregation of platelet; “−”: no aggregation of platelet.

Experiment [8] has as its system rat platelet aggregation induced by collagen. Kind of experiment: Modified smear method, collagen-induced platelet aggregation in PRP. Type of experiment: cell-based. Further details: key: ++: full aggregation of platelet; +: intermediate aggregation of platelet; ±: slight aggregation of platelet; −: no aggregation of platelet. Particulars: collagen 2 × 10^−5 g/ml. How it is done:
as §7, §8, §9

The test system of experiment [9] is rat platelet aggregation induced by ADP. Kind of experiment: Modified smear method, ADP-induced platelet aggregation in PRP. To be noted: ADP 3.2 × 10^−6 M. The class given is cell-based. Also on record: key: ++: full aggregation of platelet; +: intermediate aggregation of platelet; ±: slight aggregation of platelet; −: no aggregation of platelet. As for the experimental part: as §7, §8, §9

In general, IC50 refers to the concentration at which inhibition is half-maximal.

Where two headings read alike, the source gives them in different places.

Consider `CC(C)=CCC[C@](C)(O)[C@H]1CC[C@]2(C)[C@@H]1[C@H](O)C[C@@H]1[C@@]3(C)CC[C@H](O[C@@H]4O[C@H](CO)[C@@H](O)[C@H](O)[C@H]4O[C@@H]4O[C@H](CO)[C@@H](O)[C@H](O)[C@H]4O)C(C)(C)[C@@H]3CC[C@]12C` (racemic) [Racemic ginsenoside Rg3, ginsenoside Rg3], for which the “inhibitory effect on AA-induced platelet aggregation (in words)” value in experiment [1] is listed as “exhibited inhibitory effect”.
`CC(C)=CCC[C@](C)(O)[C@H]1CC[C@]2(C)[C@@H]1[C@H](O)C[C@@H]1[C@@]3(C)CC[C@H](O[C@@H]4O[C@H](CO)[C@@H](O)[C@H](O)[C@H]4O[C@@H]4O[C@H](CO)[C@@H](O)[C@H](O)[C@H]4O)C(C)(C)[C@@H]3CC[C@]12C` [20(R)-ginsenosides Rg3, 20(R)-ginsenoside Rg3]: the IC50 in experiment [1] is > 100 µM; in [3], 492 µM; in [6] it was 357 µM. Moreover, in [1] (listed as 20(R)-Rg3), the “inhibitory effect on AA-induced platelet aggregation (in words)” value is “only poor platelet antiaggregating activity”. In the experiment on human plasma coagulation [2], the aPTT stood at 50.3 s. In addition, the figures for the “inhibitory effect on collagen-induced platelet aggregation (in words)” value in experiment [3] and in experiment [3] (listed as 20(R)-Rg3) were “inhibited” and “comparable to that of ASA”, respectively. In addition, the TT in the experiment with human plasma coagulation [4] was determined as 13.6 s. For the same compound, the PT in the experiment on human plasma coagulation [5] turned out to be 24.1 s. Also, the “inhibitory effect on U46619-induced platelet aggregation (in words)” value in [6] was “inhibited”.
For the compound `CC(C)=CCC[C@](C)(O)[C@H]1CC[C@]2(C)[C@@H]1[C@H](O)C[C@@H]1[C@@]3(C)CC[C@H](O[C@@H]4O[C@H](CO)[C@@H](O)[C@H](O)[C@H]4O[C@@H]4O[C@H](CO)[C@@H](O)[C@H](O)[C@H]4O)C(C)(C)[C@@H]3CC[C@]12C` [20(S)-ginsenosides Rg3, 20(S)-ginsenoside Rg3], in experiment [1], the “inhibitory effect on AA-induced platelet aggregation (in words)” value is recorded as “relatively strong inhibitory effect”. Moreover, the IC50 was 53 µM in experiment [1], > 700 µM in [3] and > 700 µM in experiment [6]. The aPTT with human plasma coagulation [2] amounted to 57.2 s. In the experiment with human plasma coagulation [4], the TT was 12.9 s. For the same compound, in the experiment on human plasma coagulation [5], the PT was determined as 23.5 s.
In the case of `CC(=O)Oc1ccccc1C(=O)O` [Aspirin(ASP), Aspirin], the IC50 in experiment [1] (Platelet) was 66 µM; in experiment [3] (Platelet), 588 µM; in experiment [6] (Platelet) it was 508 µM. Moreover, in [7] (0.7 × 10^−3 M Aspirin), the “intensity of platelet aggregation, inducer AA” value is “−”. In experiment [7] (Aspirin (1.4 × 10^−3 M)), the “intensity of platelet aggregation, inducer AA (value in brackets)” value is “±”. Also, the “intensity of platelet aggregation, inducer collagen” value in [8] (1.4 × 10^−3 M Aspirin) was “−”. Besides, the “intensity of platelet aggregation, inducer collagen (value in brackets)” value in experiment [8] (Aspirin (2.8 × 10^−3 M)) is given as “±”. Besides, the “intensity of platelet aggregation, inducer ADP” value in experiment [9] (2.8 × 10^−3 M Aspirin) is recorded as “−”. Moreover, the “intensity of platelet aggregation, inducer ADP (value in brackets)” value in [9] (Aspirin (5.5 × 10^−3 M)) is listed as “±”.
As to `CC(C)=CC/C=C(\C)[C@H]1CC[C@]2(C)[C@@H]1[C@H](O)C[C@@H]1[C@@]3(C)CC[C@H](O[C@@H]4O[C@H](CO)[C@@H](O)[C@H](O)[C@H]4O[C@@H]4O[C@H](CO)[C@@H](O)[C@H](O)[C@H]4O)C(C)(C)[C@@H]3CC[C@]12C` [ginsenoside Rg5], in experiment [1], inhibition was half-maximal at 8 µM (IC50) and the “fold stronger activity than ASA on AA-induced aggregation” value is recorded as 8 fold. Further, the aPTT in the experiment with human plasma coagulation [2] was 66.0 s. In experiment [3], the “inhibitory effect on collagen-induced platelet aggregation (in words)” value was “comparable to that of ASA” and the IC50 is 409 µM. This compound also returned a TT in the experiment with human plasma coagulation [4] of 14.1 s. Moreover, in the experiment with human plasma coagulation [5], the PT came to 28.1 s. In [6], half-maximal inhibition (IC50) required 102 µM.
In the case of `C=C(CCC=C(C)C)[C@H]1CC[C@]2(C)[C@@H]1[C@H](O)C[C@@H]1[C@@]3(C)CC[C@H](O[C@@H]4O[C@H](CO)[C@@H](O)[C@H](O)[C@H]4O[C@@H]4O[C@H](CO)[C@@H](O)[C@H](O)[C@H]4O)C(C)(C)[C@@H]3CC[C@]12C` [ginsenoside Rk1], in experiment [1], the “inhibitory effect on AA-induced platelet aggregation (in words)” value was “strongest inhibitory effect among four tested compounds”, the IC50 amounted to 3 µM and the “fold stronger activity than ASA on AA-induced aggregation” value is given as 22 fold. For the same compound, the aPTT in the experiment on human plasma coagulation [2] was found to be 54.5 s. Besides, in [3], the “inhibitory effect on collagen-induced platelet aggregation (in words)” value was “strongest inhibitory effect among four tested compounds” and the IC50 is 197 µM. For the same compound, the “fold higher activity than ASA on collagen-induced aggregation” value in [3] (relative to ASA) is listed as 3 fold. Moreover, the TT in the experiment on human plasma coagulation [4] was determined as 14.3 s. Further, the PT with human plasma coagulation [5] worked out at 29.8 s. Also, in [6], the “inhibitory effect on U46619-induced platelet aggregation (in words)” value was “strongest inhibitory effect among four tested compounds” and the IC50 was determined as 78 µM.
